The values below come from ChEMBL document CHEMBL4619708, “Synthesis and biological evaluation of isoliquiritigenin derivatives as a neuroprotective agent against glutamate mediated neurotoxicity in HT22 cells” (2020).

Calls of active or inactive are those of the source. The rule behind the calls is not given here.

The test system of assay [1] is HT-22. Nature of the assay: Neuroprotection against glutamate-induced oxidative stress in mouse HT22 cells assessed as increase in cell viability pretreated with glutamate for 24 hrs followed by compound addition by calcein AM and PI staining based assay. Type of assay: functional.
For assay [2], the system named is HT-22. Nature of the assay: Neuroprotection against glutamate-induced oxidative stress in mouse HT22 cells assessed as increase in cell viability at 50 to 100 uM pretreated with glutamate for 24 hrs followed by compound addition by calcein AM and PI staining based assay. It counts as functional.
For assay [3], the system named is HT-22. Nature of the assay: Neuroprotection against glutamate-induced oxidative stress in mouse HT22 cells assessed as increase in cell viability at 3 to 6 uM pretreated with glutamate for 24 hrs followed by compound addition by calcein AM and PI staining based assay. It counts as functional.
In assay [4] the test system is HT-22. Nature of the assay: Neuroprotection against glutamate-induced oxidative stress in mouse HT22 cells assessed as increase in cell viability by MTT assay. It counts as functional, cell-based. Background: Tetrazolium assays rely on reduction of a dye to a coloured formazan, in cell work by metabolically active cells.
In assay [5] the test system is HT-22. Nature of the assay: Neuroprotection against glutamate-induced oxidative stress in mouse HT22 cells assessed as increase in cell viability at 100 uM pretreated with glutamate for 24 hrs followed by compound addition by calcein AM and PI staining based assay. It counts as functional.
Assay [6] concerns HT-22. Nature of the assay: Neuroprotection against glutamate-induced oxidative stress in mouse HT22 cells assessed as reduction in cellular ROS level by DCFDA staining based FACS analysis. Type of assay: functional, cell-based.
Assay [7] has as its system HT-22. Nature of the assay: Neuroprotection against glutamate-induced oxidative stress in mouse HT22 cells assessed as reduction in Ca2+ influx pretreated with glutamate for 8 hrs followed by compound addition by Fluo3-AM staining based fluorescent microscopic method. Type of assay: functional, cell-based.
For assay [8], the system named is HT-22. Nature of the assay: Neuroprotection against glutamate-induced oxidative stress in mouse HT22 cells assessed as reduction in Ca2+ influx pretreated with glutamate for 8 hrs followed by compound addition by Fluo3-AM staining based fluorescent microscopic method relative to control. Type of assay: functional. Further details: scale not given: the % may be the effect or the level left.

The subject of assay [9] is HT-22. Nature of the assay: Neuroprotection against glutamate-induced oxidative stress in mouse HT22 cells assessed as reduction in phosphorylated JNK protein level at 100 uM by Western blot analysis. Type of assay: functional, cell-based. A general note: In western blotting, separated proteins are transferred to a membrane and probed.
Assay [10] deals with HT-22. Nature of the assay: Neuroprotection against glutamate-induced oxidative stress in mouse HT22 cells assessed as reduction in phosphorylated ERK protein level at 100 uM by Western blot analysis. It counts as functional, cell-based.
The subject of assay [11] is HT-22. Nature of the assay: Neuroprotection against glutamate-induced oxidative stress in mouse HT22 cells assessed as reduction in phosphorylated p38 protein level at 100 uM by Western blot analysis. It counts as functional, cell-based.
Assay [12] deals with HT-22. Nature of the assay: Neuroprotection against glutamate-induced oxidative stress in mouse HT22 cells assessed as reduction in bax protein level at 100 uM by Western blot analysis. It counts as functional, cell-based.
The test system of assay [13] is HT-22. Nature of the assay: Neuroprotection against glutamate-induced oxidative stress in mouse HT22 cells assessed as increase in bcl2 protein level at 100 uM by Western blot analysis. It counts as functional, cell-based.
In assay [14] the test system is HT-22. Nature of the assay: Neuroprotection against glutamate-induced oxidative stress in mouse HT22 cells assessed as decrease in translocation of AIF to nucleus at 100 uM by Western blot analysis. It counts as functional, cell-based.
Assay [15] concerns HT-22. Nature of the assay: Neuroprotection against glutamate-induced oxidative stress in mouse HT22 cells assessed as apoptotic or dead cells pretreated with glutamate for 8 hrs followed by compound addition by annexin V and PI staining based assay (reference value: 2.58%). Type of assay: functional.
For assay [16], the system named is HT-22. Nature of the assay: Neuroprotective activity in mouse HT22 cells assessed as apoptotic or dead cells by annexin V and PI staining based assay (reference value: 2.58%). It counts as functional.

For the compound `O=C(/C=C/c1cccc(O)c1)c1ccc(O)cc1O`, the outcome in [1] was inactive.
For the compound `COc1cccc(/C=C/C(=O)c2ccc(O)cc2O)c1`, the outcome in assay [1] was inactive.
For `COc1cc(/C=C/C(=O)c2ccc(O)cc2O)ccc1O`, in assay [1], the result was inactive.
`O=C(/C=C/c1ccc2[nH]ccc2c1)c1ccc(O)cc1O`: in assay [1], the outcome was Active.
For the compound `O=C(/C=C/c1ccc(O)cc1)c1ccc(O)cc1O`, the result in [1] and in assay [2] was inactive.
For the compound `COc1ccc(/C=C/C(=O)c2ccc(O)cc2O)cc1`, the result in [1] was inactive.
`COc1cc(/C=C/C(=O)c2ccc(O)cc2O)cc(OC)c1Br`: the outcome in assay [1] was inactive.
As for `O=C(/C=C/c1ccc(-c2ccccc2)cc1)c1ccc(O)cc1O`, in assay [1], the outcome was inactive.
As for `CC(=O)N[C@@H](CS)C(=O)O`, the result in assay [1] was inactive.
For `CCn1c2ccccc2c2cc(/C=C/C(=O)c3ccc(O)cc3O)ccc21`, in assay [1], the result was inactive.
Same read-out and setting: in the case of `COc1ccc(/C=C/C(=O)c2ccc(O)cc2O)cc1OC` it was “inactive”.
For `O=C(/C=C/c1ccc(Cl)cc1)c1ccc(O)cc1O`, the result in assay [1] was inactive.
With `O=C(/C=C/c1ccc(C(F)(F)F)cc1)c1ccc(O)cc1O`, in assay [1], the outcome was inactive.
Take `O=C(/C=C/c1ccc2ccccc2c1)c1ccc(O)cc1O`: the result in [1] was inactive.
On to `COc1cc(Br)c(/C=C/C(=O)c2ccc(O)cc2O)cc1OC`, for which the result in assay [1] was inactive. In [3], the outcome was Active.
For `CN(C)c1ccc(/C=C/C(=O)c2ccc(O)cc2O)cc1`, the outcome in assay [1], in assay [4], in [5], in assay [6], in [7] and in assay [9] was Active. For the same compound, the result in assay [10], in assay [11], in assay [12], in assay [13] and in assay [14] was Active. The Activity is recorded as 50% in assay [8], 6.4% in [15] and 6.01% in assay [16].
`COc1cc(/C=C/C(=O)c2ccc(O)cc2O)cc(OC)c1OC`: the outcome in assay [1] was inactive.
As for `O=C(/C=C/c1ccccc1)c1ccc(O)cc1O`, the result in [1] was inactive.
Same read-out and setting: the same measure for `O=C(/C=C/c1ccc(O)c(O)c1)c1ccc(O)cc1O`: “inactive”.
